According to patent US20240415819A1, “MACROCYCLIC COMPOUNDS AS PROTEASOME SUBUNIT BETA TYPE-5 INHIBITORS” (Lead Discovery Center GmbH, priority 2021, published 2024):

Tests used:
hPMBC = test: Chymotrypsin-like ProteasomeGlo assay in hPBMC; assay type: cell-based; details: Homo sapiens; read-out: Pglo hPBMC
Procedure, shortened: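 IC50 derived from luminescent chymotrypsin-like proteasome activity (Suc-LLVY-Glo substrate plus luciferin detection reagent). Measured after 105 min compound exposure at 37 °C, 5% CO2. Cells were human B cells purified from buffy-coat PBMC.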

[1] = biological target: T1, β5 subunit of the human constitutive proteasome (CPS) (Homo sapiens, UniProt P28074); test: β5 inhibition assay, human constitutive proteasome (Suc-LLVY-AMC); assay type: biochemical; details: IC50 class, Suc-LLVY-AMC substrate
T1 construct: purchased Boston Biochem E-360
Description: The enzymatic activity of the β5 subunit of the human constitutive proteasome (CPS) is analyzed. In another assay, which differs from the assay of the human constitutive proteasome only in using the human immunoproteasome (IPS) the enzymatic activity of the β5 subunit of the human immunoproteasome (IPS) is analyzed. […] Inhibition is indicated as IC50 [nM] (“-”=not measured).

[2] = biological target: T2, β5 subunit of the human immunoproteasome (IPS) (Homo sapiens, UniProt P28062); test: β5 inhibition assay, human immunoproteasome (Suc-LLVY-AMC); assay type: biochemical; details: IC50 class, Suc-LLVY-AMC substrate
T2 construct: purchased Boston Biochem E-370
Procedure, shortened: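 β5 activity is read as liberated AMC fluorescence (355/460 nm) after 4 h dark reaction at RT with 22.6 μM Suc-LLVY-AMC, stopped by 1 μM bortezomib. Beforehand, 1 nM human IPS and compound sat 10 min at RT in HEPES pH 7.5 buffer containing NaCl, 0.02% SDS and DTT.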

Row | IC50 (hPMBC) | IC50 [1] | IC50 [2] | Structure (SMILES)
1 | < 100 nM | < 100 nM | < 100 nM | Cc1ccc2cc1CNC(=O)[C@H](CCc1ccccc1)NC(=O)[C@@H](NC(=O)[C@@H](C)c1ccccc1)CC(=O)N1CCCC(CCO2)C1 (stereo partly drawn) [Compound 81, (2S)-N-((9S,12S)-5^4-methyl-8,11,14-trioxo-9-phenethyl-4-oxa-7,10-diaza-1(3,1)-piperidina-5(1,3)-benzenacyclotetradecaphane-12-yl)-2-phenylpropanamide]
2 | < 100 nM | < 100 nM | < 100 nM | Cc1ccc2cc1CNC(=O)[C@H](CCc1ccccc1)NC(=O)[C@@H](NC(=O)OCc1ccccc1)CCCC(=O)N1CCCC(CCO2)C1 (stereo partly drawn) [Compound 195, benzyl ((9S,12S)-5^4-methyl-8,11,16-trioxo-9-phenethyl-4-oxa-7,10-diaza-1(3,1)-piperidina-5(1,3)-benzenacyclohexadecaphane-12-yl)carbamate]
3 | – | < 100 nM | < 100 nM | Cc1ccc2cc1CNC(=O)[C@H](CCc1ccccc1)NC(=O)[C@@H](NC(=O)c1ccccn1)CC(=O)N1CCCC(CCO2)C1 (stereo partly drawn) [Compound 40, N-((9S,12S)-5^4-methyl-8,11,14-trioxo-9-phenethyl-4-oxa-7,10-diaza-1(3,1)-piperidina-5(1,3)-benzenacyclotetradecaphane-12-yl)picolinamide]
4 | < 100 nM | < 100 nM | < 100 nM | Cc1ccc2cc1CNC(=O)[C@H](CCc1ccccc1)NC(=O)[C@@H](NC(=O)C1CCNCC1(F)F)CC(=O)N1CCCC(CCO2)C1 (stereo partly drawn) [Compound 152, 3,3-difluoro-N-((9S,12S)-5^4-methyl-8,11,14-trioxo-9-phenethyl-4-oxa-7,10-diaza-1(3,1)-piperidina-5(1,3)-benzenacyclotetradecaphane-12-yl)piperidine-4-carboxamide]
5 | < 100 nM | < 100 nM | < 100 nM | Cc1ccc2cc1CNC(=O)[C@H](CCc1ccccc1)NC(=O)[C@@H](NC(=O)CN1CCOCC1)CC(=O)N1CCCC(CCO2)C1 (stereo partly drawn) [Compound 88, N-((9S,12S)-5^4-methyl-8,11,14-trioxo-9-phenethyl-4-oxa-7,10-diaza-1(3,1)-piperidina-5(1,3)-benzenacyclotetradecaphane-12-yl)-2-morpholinoacetamide]
6 | < 100 nM | < 100 nM | < 100 nM | Cc1ccc2cc1CNC(=O)[C@H](CCc1ccccc1)NC(=O)[C@@H](NC(=O)CCc1ccccc1-c1ccccc1)CC(=O)N1CCCC(CCO2)C1 (stereo partly shown) [Compound 177]
7 | < 100 nM | < 100 nM | < 100 nM | Cc1ccc2cc1CNC(=O)[C@H](CCc1ccccc1)NC(=O)[C@@H](NC(=O)OCc1ccccc1)CCC(=O)N1CCCC(CCO2)C1 (stereo partly drawn) [Compound 199, benzyl ((9S,12S)-5^4-methyl-8,11,15-trioxo-9-phenethyl-4-oxa-7,10-diaza-1(3,1)-piperidina-5(1,3)-benzenacyclopentadecaphane-12-yl)carbamate]
8 | < 100 nM | < 100 nM | < 100 nM | Cc1nc2cc(CCC(=O)N[C@H]3CC(=O)N4CCCC(CCOc5ccc(C)c(c5)CNC(=O)[C@H](CCc5ccccc5)NC3=O)C4)ccc2[nH]1 (stereo partly drawn) [Compound 174, 3-(2-methyl-1H-benzo[d]imidazol-6-yl)-N-((9S,12S)-5^4-methyl-8,11,14-trioxo-9-phenethyl-4-oxa-7,10-diaza-1(3,1)-piperidina-5(1,3)-benzenacyclotetradecaphane-12-yl)propanamide]
9 | < 100 nM | < 100 nM | < 100 nM | Cc1ccc2cc1CNC(=O)[C@H](CCc1ccccc1)NC(=O)[C@@H](NC(=O)C1(N)COC1)CC(=O)N1CCCC(CCO2)C1 (stereo partly drawn) [Compound 158, 3-amino-N-((9S,12S)-5^4-methyl-8,11,14-trioxo-9-phenethyl-4-oxa-7,10-diaza-1(3,1)-piperidina-5(1,3)-benzenacyclotetradecaphane-12-yl)oxetane-3-carboxamide]
10 | < 100 nM | < 100 nM | < 100 nM | Cc1ccc2cc1CNC(=O)[C@H](CCc1ccccc1)NC(=O)[C@@H](NC(=O)C1(N)CCOC1)CC(=O)N1CCCC(CCO2)C1 (stereo partly drawn) [Compound 159, 3-amino-N-((9S,12S)-5^4-methyl-8,11,14-trioxo-9-phenethyl-4-oxa-7,10-diaza-1(3,1)-piperidina-5(1,3)-benzenacyclotetradecaphane-12-yl)tetrahydrofuran-3-carboxamide]
11 | – | < 100 nM | < 100 nM | Cc1ccc2cc1CNC(=O)[C@H](CCc1ccccc1)NC(=O)[C@@H](NC(=O)c1ccccc1)CC(=O)N1CCCC(CCO2)C1 (stereo partly drawn) [Compound 26, N-((9S,12S)-5^4-methyl-8,11,14-trioxo-9-phenethyl-4-oxa-7,10-diaza-1(3,1)-piperidina-5(1,3)-benzenacyclotetradecaphane-12-yl)benzamide]
12 | – | < 100 nM | < 100 nM | Cc1ccc2cc1CNC(=O)[C@H](CCc1ccccc1)NC(=O)CCCCC(=O)N1CCCC(CCO2)C1 (stereo partly drawn) [Compound 16, (9S)-5^4-methyl-9-phenethyl-4-oxa-7,10-diaza-1(3,1)-piperidina-5(1,3)-benzenacyclohexadecaphane-8,11,16-trione]
13 | – | < 100 nM | < 100 nM | Cc1ccc2cc1CNC(=O)[C@H](CCc1ccccc1)NC(=O)[C@@H](Nc1ccccn1)CC(=O)N1CCCC(CCO2)C1 (stereo partly drawn) [Compound 36, (9S,12S)-5^4-methyl-9-phenethyl-12-(pyridin-2-ylamino)-4-oxa-7,10-diaza-1(3,1)-piperidina-5(1,3)-benzenacyclotetradecaphane-8,11,14-trione]
14 | – | < 100 nM | < 100 nM | Cc1ccc2cc1CNC(=O)C(CCc1cccnc1)NC(=O)CCC(=O)N1CCCC(CCO2)C1 (stereo not shown) [Compound 51, 5^4-methyl-9-(2-(pyridin-3-yl)ethyl)-4-oxa-7,10-diaza-1(3,1)-piperidina-5(1,3)-benzenacyclotetradecaphane-8,11,14-trione]
15 | – | < 100 nM | < 100 nM | Cc1ccc2cc1CNC(=O)[C@H](CCc1ccccc1)NC(=O)[C@@H](Nc1nc3ccccc3[nH]1)CC(=O)N1CCCC(CCO2)C1 (stereo partly drawn) [Compound 45, (9S,12S)-12-((1H-benzo[d]imidazol-2-yl)amino)-5^4-methyl-9-phenethyl-4-oxa-7,10-diaza-1(3,1)-piperidina-5(1,3)-benzenacyclotetradecaphane-8,11,14-trione]
16 | – | 100 to 500 nM | < 100 nM | Cc1ccc2cc1CNC(=O)[C@H](Cc1ccccc1)NC(=O)CCC(=O)N1CCCC(CCO2)C1 (stereo partly drawn) [Compound 79, (9S)-9-benzyl-5^4-methyl-4-oxa-7,10-diaza-1(3,1)-piperidina-5(1,3)-benzenacyclotetradecaphane-8,11,14-trione]
17 | < 100 nM | – | < 100 nM | CC(=O)N[C@H]1CC(=O)N2CCCC(CCOc3ccc(C)c(c3)CNC(=O)C(CCc3cnccn3)NC1=O)C2 (stereo partly drawn) [Compound 564, N-((12S)-5^4-methyl-8,11,14-trioxo-9-(2-(pyrazin-2-yl)ethyl)-4-oxa-7,10-diaza-1(3,1)-piperidina-5(1,3)-benzenacyclotetradecaphane-12-yl)acetamide]
18 | – | < 100 nM | < 100 nM | Cc1ccc2cc1CNC(=O)[C@H](CCc1ccccc1)NC(=O)[C@@H](N1C(=O)CCC1=O)CC(=O)N1CCCC(CCO2)C1 (stereo partly drawn) [Compound 43, (9S,12S)-12-(2,5-dioxopyrrolidin-1-yl)-5^4-methyl-9-phenethyl-4-oxa-7,10-diaza-1(3,1)-piperidina-5(1,3)-benzenacyclotetradecaphane-8,11,14-trione]
19 | – | < 100 nM | < 100 nM | Cc1ccc2cc1CNC(=O)[C@H](CCc1ccccc1)NC(=O)[C@@H](NC(=O)c1ccncc1)CC(=O)N1CCCC(CCO2)C1 (stereo partly drawn) [Compound 42, N-((9S,12S)-5^4-methyl-8,11,14-trioxo-9-phenethyl-4-oxa-7,10-diaza-1(3,1)-piperidina-5(1,3)-benzenacyclotetradecaphane-12-yl)isonicotinamide]
20 | – | < 100 nM | < 100 nM | Cc1ccc2cc1CNC(=O)[C@H](CCc1ccccc1)NC(=O)[C@@H](NC(=O)CCc1cccc(F)c1)CC(=O)N1CCCC(CCO2)C1 (stereo partly drawn) [Compound 25, 3-(3-fluorophenyl)-N-((9S,12S)-5^4-methyl-8,11,14-trioxo-9-phenethyl-4-oxa-7,10-diaza-1(3,1)-piperidina-5(1,3)-benzenacyclotetradecaphane-12-yl)propanamide]
21 | – | < 100 nM | < 100 nM | Cc1ccc2cc1CNC(=O)[C@H](CCc1ccccc1)NC(=O)CCC(=O)N1CCCC(CCO2)C1 (stereo partly drawn) [Compound 13, (9S)-5^4-methyl-9-phenethyl-4-oxa-7,10-diaza-1(3,1)-piperidina-5(1,3)-benzenacyclotetradecaphane-8,11,14-trione]
22 | – | < 100 nM | < 100 nM | Cc1ccc2cc1CNC(=O)[C@H](CCc1ccccc1)NC(=O)[C@@H](NS(C)(=O)=O)CC(=O)N1CCCC(CCO2)C1 (stereo partly drawn) [Compound 37, N-((9S,12S)-5^4-methyl-8,11,14-trioxo-9-phenethyl-4-oxa-7,10-diaza-1(3,1)-piperidina-5(1,3)-benzenacyclotetradecaphane-12-yl)methanesulfonamide]

Row | Structure (SMILES) | IC50 (hPMBC) | IC50 [1] | IC50 [2]
23 | CCOC(=O)N[C@H]1CC(=O)N2CCCC(CCOc3ccc(C)c(c3)CNC(=O)[C@H](CCc3ccccc3)NC1=O)C2 (stereo partly drawn) [Compound 39, ethyl ((9S,12S)-5^4-methyl-8,11,14-trioxo-9-phenethyl-4-oxa-7,10-diaza-1(3,1)-piperidina-5(1,3)-benzenacyclotetradecaphane-12-yl)carbamate] | – | < 100 nM | < 100 nM
